{"source": "patent US20220281848A1", "about": "“PYRAZOLE-SUBSTITUTED PYRROLIDINONES AS HERBICIDES” (FMC Corporation, priority 2019, published 2022)", "test_system": "plants", "assay": "Test D pre-emergence, other plants of Tables D1 and D3", "type": "in vivo", "settings": "20 DAA; for damage to plant (100=total damage to plant; 0=no damage to plant), BIDPI / damage to plant (100=total damage to plant; 0=no damage to plant), BRAPL / damage to plant (100=total damage to plant; 0=no damage to plant), CYPES / damage to plant (100=total damage to plant; 0=no damage to plant), EPHHL / damage to plant (100=total damage to plant; 0=no damage to plant), GLXMA / damage to plant (100=total damage to plant; 0=no damage to plant), IPOHE / damage to plant (100=total damage to plant; 0=no damage to plant), SORVU: preemergent; for CHEAL damage rating / GALAP damage rating / KCHSC damage rating / LOLPE damage rating / POAAN damage rating / STEME damage rating / VERPE damage rating: pre-emergence, 100=total damage, 0=no damage", "in_short": "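Seeds treated with herbicide safener; sown in soil; glasshouse, 16 h light, 65% humidity. Sprayed day 1 (pre) or ~day 12 (post). Spray in 0.2% v/v adjuvant. Scored 0–100 damage: 20 DAA pre, 15 d post.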", "data": [{"smiles": "CN1CC(c2cc(C(F)(F)F)n(C)n2)C(C(=O)Nc2cccc(F)n2)C1=O", "note": "(racemic) [Compound 24]", "values": [{"measurement": "damage to plant (100=total damage to plant; 0=no damage to plant), BIDPI", "setting": "rate 15", "result": 0}, {"measurement": "damage to plant (100=total damage to plant; 0=no damage to plant), BIDPI", "setting": "rate 30", "result": 0}, {"measurement": "damage to plant (100=total damage to plant; 0=no damage to plant), BIDPI", "setting": "rate 60", "result": 0}, {"measurement": "damage to plant (100=total damage to plant; 0=no damage to plant), BIDPI", "setting": "rate 130", "result": 0}, {"measurement": "damage to plant (100=total damage to plant; 0=no damage to plant), BIDPI", "setting": "rate 250", "result": 0}, {"measurement": "damage to plant (100=total damage to plant; 0=no damage to plant), BIDPI", "setting": "rate 500", "result": 0}, {"measurement": "damage to plant (100=total damage to plant; 0=no damage to plant), BRAPL", "setting": "rate 15", "result": 0}, {"measurement": "damage to plant (100=total damage to plant; 0=no damage to plant), BRAPL", "setting": "rate 30", "result": 20}, {"measurement": "damage to plant (100=total damage to plant; 0=no damage to plant), BRAPL", "setting": "rate 60", "result": 30}, {"measurement": "damage to plant (100=total damage to plant; 0=no damage to plant), BRAPL", "setting": "rate 130", "result": 80}, {"measurement": "damage to plant (100=total damage to plant; 0=no damage to plant), BRAPL", "setting": "rate 250", "result": 80}, {"measurement": "damage to plant (100=total damage to plant; 0=no damage to plant), BRAPL", "setting": "rate 500", "result": 90}, {"measurement": "CHEAL damage rating", "setting": "Rates 15", "result": 0}, {"measurement": "CHEAL damage rating", "setting": "Rates 30", "result": 0}, {"measurement": "CHEAL damage rating", "setting": "Rates 60", "result": 0}, {"measurement": "CHEAL damage rating", "setting": "Rates 130", "result": 0}, {"measurement": "CHEAL damage rating", "setting": "Rates 250", "result": 40}, {"measurement": "CHEAL damage rating", "setting": "Rates 500", "result": 50}, {"measurement": "damage to plant (100=total damage to plant; 0=no damage to plant), CYPES", "setting": "rate 15", "result": 0}, {"measurement": "damage to plant (100=total damage to plant; 0=no damage to plant), CYPES", "setting": "rate 30", "result": 0}, {"measurement": "damage to plant (100=total damage to plant; 0=no damage to plant), CYPES", "setting": "rate 60", "result": 0}, {"measurement": "damage to plant (100=total damage to plant; 0=no damage to plant), CYPES", "setting": "rate 130", "result": 0}, {"measurement": "damage to plant (100=total damage to plant; 0=no damage to plant), CYPES", "setting": "rate 250", "result": 0}, {"measurement": "damage to plant (100=total damage to plant; 0=no damage to plant), CYPES", "setting": "rate 500", "result": 0}, {"measurement": "damage to plant (100=total damage to plant; 0=no damage to plant), EPHHL", "setting": "rate 15", "result": 0}, {"measurement": "damage to plant (100=total damage to plant; 0=no damage to plant), EPHHL", "setting": "rate 30", "result": 0}, {"measurement": "damage to plant (100=total damage to plant; 0=no damage to plant), EPHHL", "setting": "rate 60", "result": 0}, {"measurement": "damage to plant (100=total damage to plant; 0=no damage to plant), EPHHL", "setting": "rate 130", "result": 0}, {"measurement": "damage to plant (100=total damage to plant; 0=no damage to plant), EPHHL", "setting": "rate 250", "result": 0}, {"measurement": "damage to plant (100=total damage to plant; 0=no damage to plant), EPHHL", "setting": "rate 500", "result": 10}, {"measurement": "GALAP damage rating", "setting": "Rates 15", "result": 0}, {"measurement": "GALAP damage rating", "setting": "Rates 30", "result": 0}, {"measurement": "GALAP damage rating", "setting": "Rates 60", "result": 0}, {"measurement": "GALAP damage rating", "setting": "Rates 130", "result": 0}, {"measurement": "GALAP damage rating", "setting": "Rates 250", "result": 0}, {"measurement": "GALAP damage rating", "setting": "Rates 500", "result": 0}, {"measurement": "damage to plant (100=total damage to plant; 0=no damage to plant), GLXMA", "setting": "rate 15", "result": 0}, {"measurement": "damage to plant (100=total damage to plant; 0=no damage to plant), GLXMA", "setting": "rate 30", "result": 0}, {"measurement": "damage to plant (100=total damage to plant; 0=no damage to plant), GLXMA", "setting": "rate 60", "result": 0}, {"measurement": "damage to plant (100=total damage to plant; 0=no damage to plant), GLXMA", "setting": "rate 130", "result": 0}, {"measurement": "damage to plant (100=total damage to plant; 0=no damage to plant), GLXMA", "setting": "rate 250", "result": 0}, {"measurement": "damage to plant (100=total damage to plant; 0=no damage to plant), GLXMA", "setting": "rate 500", "result": 0}, {"measurement": "damage to plant (100=total damage to plant; 0=no damage to plant), IPOHE", "setting": "rate 15", "result": 0}, {"measurement": "damage to plant (100=total damage to plant; 0=no damage to plant), IPOHE", "setting": "rate 30", "result": 0}, {"measurement": "damage to plant (100=total damage to plant; 0=no damage to plant), IPOHE", "setting": "rate 60", "result": 0}, {"measurement": "damage to plant (100=total damage to plant; 0=no damage to plant), IPOHE", "setting": "rate 130", "result": 0}, {"measurement": "damage to plant (100=total damage to plant; 0=no damage to plant), IPOHE", "setting": "rate 250", "result": 0}, {"measurement": "damage to plant (100=total damage to plant; 0=no damage to plant), IPOHE", "setting": "rate 500", "result": 0}, {"measurement": "KCHSC damage rating", "setting": "Rates 15", "result": 0}, {"measurement": "KCHSC damage rating", "setting": "Rates 30", "result": 0}, {"measurement": "KCHSC damage rating", "setting": "Rates 60", "result": 0}, {"measurement": "KCHSC damage rating", "setting": "Rates 130", "result": 0}, {"measurement": "KCHSC damage rating", "setting": "Rates 250", "result": 0}, {"measurement": "KCHSC damage rating", "setting": "Rates 500", "result": 10}, {"measurement": "LOLPE damage rating", "setting": "Rates 15", "result": 0}, {"measurement": "LOLPE damage rating", "setting": "Rates 30", "result": 0}, {"measurement": "LOLPE damage rating", "setting": "Rates 60", "result": 0}, {"measurement": "LOLPE damage rating", "setting": "Rates 130", "result": 0}, {"measurement": "LOLPE damage rating", "setting": "Rates 250", "result": 0}, {"measurement": "LOLPE damage rating", "setting": "Rates 500", "result": 10}, {"measurement": "POAAN damage rating", "setting": "Rates 15", "result": 0}, {"measurement": "POAAN damage rating", "setting": "Rates 30", "result": 0}, {"measurement": "POAAN damage rating", "setting": "Rates 60", "result": 0}, {"measurement": "POAAN damage rating", "setting": "Rates 130", "result": 0}, {"measurement": "POAAN damage rating", "setting": "Rates 250", "result": 20}, {"measurement": "POAAN damage rating", "setting": "Rates 500", "result": 40}, {"measurement": "damage to plant (100=total damage to plant; 0=no damage to plant), SORVU", "setting": "rate 15", "result": 0}, {"measurement": "damage to plant (100=total damage to plant; 0=no damage to plant), SORVU", "setting": "rate 30", "result": 0}, {"measurement": "damage to plant (100=total damage to plant; 0=no damage to plant), SORVU", "setting": "rate 60", "result": 0}, {"measurement": "damage to plant (100=total damage to plant; 0=no damage to plant), SORVU", "setting": "rate 130", "result": 0}, {"measurement": "damage to plant (100=total damage to plant; 0=no damage to plant), SORVU", "setting": "rate 250", "result": 0}, {"measurement": "damage to plant (100=total damage to plant; 0=no damage to plant), SORVU", "setting": "rate 500", "result": 0}, {"measurement": "STEME damage rating", "setting": "Rates 15", "result": 0}, {"measurement": "STEME damage rating", "setting": "Rates 30", "result": 0}, {"measurement": "STEME damage rating", "setting": "Rates 60", "result": 0}, {"measurement": "STEME damage rating", "setting": "Rates 130", "result": 0}, {"measurement": "STEME damage rating", "setting": "Rates 250", "result": 10}, {"measurement": "STEME damage rating", "setting": "Rates 500", "result": 70}, {"measurement": "VERPE damage rating", "setting": "Rates 15", "result": 0}, {"measurement": "VERPE damage rating", "setting": "Rates 30", "result": 0}, {"measurement": "VERPE damage rating", "setting": "Rates 60", "result": 0}, {"measurement": "VERPE damage rating", "setting": "Rates 130", "result": 0}, {"measurement": "VERPE damage rating", "setting": "Rates 250", "result": 50}, {"measurement": "VERPE damage rating", "setting": "Rates 500", "result": 60}]}]}
